Data: patent US5574043A, “Certain [1,2,5-thiadiazol-4-yl]-1-azabicyclo [3.2.1]octane derivatives and their pharmaceutical uses” (Novo Nordisk A/S, priority 1995, dated 1996)
Where a name gives a salt, the structure may show the parent alone.

Molecular target: muscarinic acetylcholine receptors
Test: Inhibition of specific binding of 3H-Oxotremorine-M (OXO BINDING) in vitro, rat cortex
Design: species or system male Wistar rats
Conditions: rat cortex homogenate, 3H-Oxotremorine 1.0 nM, 30 min at 25° C., pH 7.4
Source text: The pharmacological properties of the compounds of the invention can be illustrated by determining their capability to inhibit the specific binding of ^3 H-Oxotremorine-M (^3 H-Oxo). Birdsdall N. J. M., Hulme E. C., and Burgen A. S. V. (1980). "The Character of Muscarinic Receptors in Different Regions of the Rat Brain". Proc. Roy. Soc. London (Series B) 207,1.
^3 H-Oxo labels muscarinic receptor in the CNS (with a preference for agonist domains of the receptors). Three different sites are labelled by ^3 H-Oxo. […] Using the present experimental conditions only the high and medium affinity sites are determined.
The inhibitory effects of compounds on ^3 H-Oxo binding reflects the affinity for muscarinic acetylcholine receptors.
All preparations are performed at 0°-4° C. unless otherwise indicated. Fresh cortex (0.1-1 g) from male Wistar rats (150-250 g) is homogenized for 5-10 s in 10 ml 20 mM Hepes pH: 7.4, with an Ultra-Turrax homogenizer. The homogenizer, is rinsed with 10 ml of buffer and the combined suspension centrifuged for 15 min at 40,000×g. The pellet is washed three times with buffer. In each step the pellet is homogenized as before in 2×10 ml of buffer and centrifuged for 10 min at 40,000×g.
The final pellet is homogenized in 20 mM Hepes pH: 7.4 (100 ml per g of original tissue) and used for binding assay. Aliquots of 0.5 ml is added 25 μl of test solution and 25 μl of ^3 H-Oxotremorine (1.0 nM, final concentration) mixed and incubated for 30 min at 25° C. Non-specific binding is determined in triplicate using arecoline (1 μg/ml, final concentration) as the test substance. After incubation samples are added 5 ml of ice-cold buffer and poured directly onto Whatman GF/C glass fibre filters under suction and immediately washed 2 times with 5 ml of ice-cold buffer. The amount of radioactivity on the filters are determined by conventional liquid scintillation counting. Specific binding is total binding minus non specific binding.
Test substances are dissolved in 10 ml water (if necessary heated on a steam bath for less than 5 minutes) at a concentration of 2.2 mg/ml.
The test value will be given as IC50 (the concentration (ng/ml) of the test substance which inhibits the specific binding of ^3 H-Oxo by 50%).
IC50 =(applied test substance concentration) [formula] where Co is specific binding in control assays and Cx is the specific binding in the test assay. (The calculations assume normal mass-action kinetics).

**Q.** For `CCCCSc1nsnc1C1CN2CCC1CC2.O=C(O)C(O)C(O)C(=O)O` (single isomer, unassigned) [Compound 55, (-) 3-(3-Butylthio-1,2,5-thiadiazol-4-yl)-1-azabicyclo[2.2.2]octane (+) L-tartrate], which “Inhibition in vitro OXO BINDING IC50” value (L-tartrate) is on record?
**A.** Its value is 0.43 ng/mL.

**Q.** Which “Inhibition in vitro OXO BINDING IC50” value does the source give for `COc1nsnc1[C@@H]1CN2CC[C@H]1C2` (relative stereo) [Compound 23, Endo-3-(3-methoxy-1,2,5-thiadiazol-4-yl)-1-azabicyclo[2.2.1]heptane oxalate] here?
**A.** The value was 43 ng/mL.

**Q.** With `Clc1nsnc1C12CCCN(CC1)C2.O=C(O)C(=O)O` (stereo not shown) [Compound 67, 5-(3-Chloro-1,2,5-thiadiazol-4-yl)-1-azabicyclo[3.2.1]octane oxalate] as the compound, how does the “Inhibition in vitro OXO BINDING IC50” value read?
**A.** The value was 0.43 ng/mL.

**Q.** Which “Inhibition in vitro OXO BINDING IC50” value does the source give for `CCCCSc1nsnc1C1CN2CCC1CC2.O=C(O)C(O)C(O)C(=O)O` (single isomer, unassigned) [Compound 56, (+) 3-(3-Butylthio-1,2,5-thiadiazol-4-yl)-1-azabicyclo[2.2.2]octane (-)D-tartrate] here?
**A.** Its value is 0.14 ng/mL.

**Q.** For `CCCCCOc1nsnc1C1CN2CCC1CC2.O=C(O)C(=O)O` (stereo not shown) [Compound 50, 3-(3-Pentyloxy-1,2,5-thiadiazol-4-yl)-1-azabicyclo[2.2.2]octane oxalate], which “Inhibition in vitro OXO BINDING IC50” value is on record?
**A.** The value was 1.0 ng/mL.

**Q.** For `CCCCSc1nsnc1[C@@H]1CN2CCC[C@@H]1C2` (single isomer, unassigned) [Compound 112, (-)-Exo-6-(3-butylthio-1,2,5-thiadiazol-4-yl)-1-azabicyclo[3.2.1]octane (-) D-tartrate], which “Inhibition in vitro OXO BINDING IC50” value is on record?
**A.** The value was 0.19 ng/mL.

**Q.** For `Cc1nnc(SCCCCSc2nsnc2C2CN3CCC2CC3)s1` (stereo not shown) [Compound 107, oxalate], which “Inhibition in vitro OXO BINDING IC50” value is on record?
**A.** Its value is 0.3 ng/mL.

**Q.** With `CCCCSc1nsnc1[C@@H]1CN2CCC[C@@H]1C2` (single isomer, unassigned) [Compound 111, (+)-Exo-6-(3-butylthio-1,2,5-thiadiazol-4-yl)-1-azabicyclo[3.2.1]octane (+) L-tartrate] as the compound, how does the “Inhibition in vitro OXO BINDING IC50” value read?
**A.** The value was 0.32 ng/mL.

**Q.** `CCCCSc1nsnc1[C@H]1CN2CC[C@H]1C2` (relative stereo) [Compound 42, Exo-3-(3-butylthio-1,2,5-thiadiazol-4-yl)-1-azabicyclo[2.2.1]heptane oxalate] was tested. Which “Inhibition in vitro OXO BINDING IC50” value did it give?
**A.** Its value is 0.35 ng/mL.

**Q.** `CCCCOc1nsnc1C1=CC2CCCN(C1)C2.O=C(O)C(=O)O` (stereo not shown) [Compound 95, 3-(3-Butoxy-1,2,5-thiadiazol-4-yl)-1-azabicyclo[3.3.1]non-3-ene oxalate] was tested. Which “Inhibition in vitro OXO BINDING IC50” value did it give?
**A.** Its value is 1.7 ng/mL.

**Q.** With `FC(F)(F)C(F)(F)C(F)(F)COc1nsnc1[C@@H]1CN2CCC[C@@H]1C2` (relative stereo) [Compound 116, Exo-6-(3-(2,2,3,3,4,4,4-heptafluorobutyloxy)-1,2,5-thiadiazol-4-yl)-1-azabicyclo[3.2.1]octane oxalate] as the compound, how does the “Inhibition in vitro OXO BINDING IC50” value read?
**A.** The value was 1.4 ng/mL.

**Q.** How did the “Inhibition in vitro OXO BINDING IC50” value turn out when `CCCCCSc1nsnc1[C@@H]1CN2CC[C@H]1C2` (relative stereo) [Compound 33, Endo-3-(3-pentylthio-1,2,5-thiadiazol-4-yl)-1-azabicyclo[2.2.1]heptane fumarate] was run?
**A.** The value was 6.4 ng/mL.

**Q.** Which “Inhibition in vitro OXO BINDING IC50” value does the source give for `N#CCSc1nsnc1[C@H]1CN2CCC[C@@H]1C2` (relative stereo) [Compound 89, Endo-6-(3-cyanomethylthio-1,2,5-thiadiazol-4-yl)-1-azabicyclo[3.2.1]octane oxalate] here?
**A.** Its value is 12 ng/mL.

**Q.** Which “Inhibition in vitro OXO BINDING IC50” value does the source give for `Clc1nsnc1[C@H]1CN2CC[C@@H]1C2` (relative stereo) [Compound 22, Endo-3-(3-chloro-1,2,5-thiadiazol-4-yl)-1-azabicyclo[2.2.1]heptane oxalate] here?
**A.** The value was 3.4 ng/mL.

**Q.** For `CCCOc1nsnc1C1CN2CCC1CC2.O=C(O)/C=C/C(=O)O` (stereo not shown) [Compound 10, 3-(3-Propoxy-1,2,5-thiadiazol-4-yl)-1-azabicyclo[2.2.2]octane fumarate], which “Inhibition in vitro OXO BINDING IC50” value is on record?
**A.** The value was 1.7 ng/mL.

**Q.** How did the “Inhibition in vitro OXO BINDING IC50” value turn out when `N#Cc1ccc(CSc2nsnc2[C@H]2CN3CCC[C@H]2C3)cc1` (relative stereo) [Compound 82, Exo-6-(3-(4-cyanobenzylthio)-1,2,5-thiadiazol-4-yl)-1-azabicyclo[3.2.1]octane oxalate] was run?
**A.** Its value is 0.40 ng/mL.

**Q.** For `N#CCCSc1nsnc1[C@H]1CN2CCC[C@H]1C2` (relative stereo) [Compound 80, Exo-6-(3-(2-cyanoethylthio)-1,2,5-thiadiazol-4-yl)-1-azabicyclo[3.2.1]octane oxalate], which “Inhibition in vitro OXO BINDING IC50” value is on record?
**A.** The value was 0.30 ng/mL.

**Q.** Which “Inhibition in vitro OXO BINDING IC50” value does the source give for `N#CCSc1nsnc1C1CN2CCC1CC2.O=C(O)C(=O)O` (stereo not shown) [Compound 103, 3-(3-Cyanomethylthio-1,2,5-thiadiazol-4-yl)-1-azabicyclo[2.2.2]octane oxalate] here?
**A.** Its value is 0.92 ng/mL.

**Q.** `CC(C)CCCSc1nsnc1[C@H]1CN2CCC[C@H]1C2` (relative stereo) [Compound 76, Exo-6-(3-isohexylthio-1,2,5-thiadiazol-4-yl)-1-azabicyclo[3.2.1]octane oxalate] was tested. Which “Inhibition in vitro OXO BINDING IC50” value did it give?
**A.** Its value is 2.6 ng/mL.

**Q.** Which “Inhibition in vitro OXO BINDING IC50” value does the source give for `CC(C)CSc1nsnc1C1CN2CCC1CC2.O=C(O)/C=C/C(=O)O` (stereo not shown) [Compound 101, 3-(3-Isobutylthio-1,2,5-thiadiazol-4-yl)-1-azabicyclo[2.2.2]octane fumarate] here?
**A.** Its value is 0.75 ng/mL.

**Q.** How did the “Inhibition in vitro OXO BINDING IC50” value turn out when `Clc1nsnc1C1(Cl)CN2CCC1CC2.O=C(O)C(=O)O` (stereo not shown) [Compound 1, 3-Chloro-3-(3-chloro-1,2,5-thiadiazol-4-yl)-1-azabicyclo[2.2.2]-octane oxalate] was run?
**A.** The value was 156 ng/mL.

**Q.** Which “Inhibition in vitro OXO BINDING IC50” value does the source give for `CC(C)CCSc1nsnc1[C@@H]1CN2CCC[C@H]1C2` (relative stereo) [Compound 86, Endo-6-(3-isopentylthio-1,2,5-thiadiazol-4-yl)-1-azabicyclo[3.2.1]octane oxalate] here?
**A.** Its value is 3.5 ng/mL.

**Q.** For `N#CCCCCSc1nsnc1[C@H]1CN2CCC[C@H]1C2` (relative stereo) [Compound 78, Exo-6-(3-(4-cyanobutylthio)-1,2,5-thiadiazol-4-yl)-1-azabicyclo[3.2.1]octane oxalate], which “Inhibition in vitro OXO BINDING IC50” value is on record?
**A.** The value was 0.30 ng/mL.

**Q.** For `CCCCOc1nsnc1C1CN2CCC1CC2.O=C(O)C(=O)O` (stereo not shown) [Compound 46, 3-(3-Butoxy-1,2,5-thiadiazol-4-yl)-1-azabicyclo[2.2.2]octane oxalate], which “Inhibition in vitro OXO BINDING IC50” value is on record?
**A.** The value was 0.56 ng/mL.

**Q.** With `COc1nsnc1C1=CN2CCC1CC2.O=C(O)C(=O)O` [Compound 4, 3-(3-Methoxy-1,2,5-thiadiazol-4-yl)-1-azabicyclo[2.2.2]oct-2-ene oxalate] as the compound, how does the “Inhibition in vitro OXO BINDING IC50” value read?
**A.** Its value is 21 ng/mL.

**Q.** `COc1nsnc1C1=C(Cl)C2CCCN(C1)C2.O=C(O)C(=O)O` (stereo not shown) [Compound 64, 4-Chloro-3-(3-methoxy-1,2,5-thiadiazol-4-yl)-1-azabicyclo[3.3.1]non-3-ene oxalate] was tested. Which “Inhibition in vitro OXO BINDING IC50” value did it give?
**A.** The value was 8.2 ng/mL.

**Q.** With `CCCSc1nsnc1[C@@H]1CN2CC[C@H]1C2` (relative stereo) [Compound 37, Endo:3-(3-propylthio-1,2,5-thiadiazol-4-yl)-1-azabicyclo[2.2.1]heptane oxalate] as the compound, how does the “Inhibition in vitro OXO BINDING IC50” value read?
**A.** Its value is 2.0 ng/mL.

**Q.** For `CCCSc1nsnc1[C@@H]1CN2CCC[C@@H]1C2` (single isomer, unassigned) [Compound 113, (+)-Exo-6-(3-propylthio-1,2,5-thiadiazol-4-yl)-1-azabicyclo[3.2.1]octane (+) L-tartrate], which “Inhibition in vitro OXO BINDING IC50” value is on record?
**A.** The value was 0.26 ng/mL.
